This assay deals with T1, Full-length USP19 (Homo sapiens, UniProt O94966).
T1 construct: Full-length USP19 was purchased from Boston Biochem (E-576); purchased Boston Biochem E-576
T1 sequence (O94966 1-1318): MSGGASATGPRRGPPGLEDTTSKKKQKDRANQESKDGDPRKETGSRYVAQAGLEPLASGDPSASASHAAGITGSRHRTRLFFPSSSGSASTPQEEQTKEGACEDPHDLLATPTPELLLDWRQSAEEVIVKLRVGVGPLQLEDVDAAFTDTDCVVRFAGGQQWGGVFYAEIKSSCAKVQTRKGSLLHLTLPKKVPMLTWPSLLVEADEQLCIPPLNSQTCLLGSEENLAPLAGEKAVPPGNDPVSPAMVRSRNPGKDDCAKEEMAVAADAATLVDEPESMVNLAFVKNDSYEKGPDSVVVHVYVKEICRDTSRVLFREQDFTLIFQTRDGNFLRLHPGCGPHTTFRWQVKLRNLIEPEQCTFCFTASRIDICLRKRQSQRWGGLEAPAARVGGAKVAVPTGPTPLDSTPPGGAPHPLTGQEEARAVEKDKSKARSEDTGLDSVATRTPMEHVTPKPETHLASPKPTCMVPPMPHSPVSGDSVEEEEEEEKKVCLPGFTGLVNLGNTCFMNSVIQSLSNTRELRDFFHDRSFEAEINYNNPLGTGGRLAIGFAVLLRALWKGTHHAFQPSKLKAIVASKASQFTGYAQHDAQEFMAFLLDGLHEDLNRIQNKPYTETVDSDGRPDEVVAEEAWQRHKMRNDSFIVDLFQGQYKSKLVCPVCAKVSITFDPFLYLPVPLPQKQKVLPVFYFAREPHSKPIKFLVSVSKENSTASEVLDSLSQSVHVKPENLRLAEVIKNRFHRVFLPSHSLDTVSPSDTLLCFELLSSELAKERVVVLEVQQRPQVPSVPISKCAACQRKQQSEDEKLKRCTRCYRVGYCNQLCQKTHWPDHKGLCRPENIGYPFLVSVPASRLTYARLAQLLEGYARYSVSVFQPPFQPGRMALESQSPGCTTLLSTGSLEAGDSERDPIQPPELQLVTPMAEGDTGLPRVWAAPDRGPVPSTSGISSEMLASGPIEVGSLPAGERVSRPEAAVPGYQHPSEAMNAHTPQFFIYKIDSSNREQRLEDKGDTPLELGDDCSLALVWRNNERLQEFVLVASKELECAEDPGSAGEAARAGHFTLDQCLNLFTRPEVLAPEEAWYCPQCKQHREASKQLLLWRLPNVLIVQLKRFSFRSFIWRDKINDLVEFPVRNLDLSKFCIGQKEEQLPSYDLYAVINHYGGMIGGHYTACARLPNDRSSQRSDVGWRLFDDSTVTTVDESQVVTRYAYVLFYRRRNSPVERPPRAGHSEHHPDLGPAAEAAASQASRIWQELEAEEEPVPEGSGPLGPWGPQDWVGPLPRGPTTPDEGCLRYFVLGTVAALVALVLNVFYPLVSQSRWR
Nature of the assay: USP19 fluorescence polarisation (FP) homogeneous assay with Ubiquitin-Lys-TAMRA substrate. The format is biochemical. To be noted: 2.5 nM USP19, 30 min pre-incubation, average of at least two duplicate experiments. In short, it runs like this:
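Full-length USP19 preincubated 30 min at RT with inhibitor (200 μM to 2 μM series, 8–18 points) before adding 500 nM Ubiquitin-Lys-TAMRA substrate.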
Turning to `O=C(N1CC[C@@](O)(Cn2cnc(-c3cccc(F)c3F)cc2=O)C2(CCCC2)C1)N1CCNC[C@H]1c1ccccc1` [Example 385, 6-(2,3-Difluoro-phenyl)-3-(((S)-10-hydroxy-7-((R)-2-phenylpiperazine-1-carbonyl)-7-aza-spiro[4.5]decan-10-yl)methyl)pyrimidin-4(3H)-one], the IC50 (as a rule, the midpoint of a concentration-inhibition curve) is below 500 nM.

`CC(NC(=O)N1CCC(O)(Cn2cnc(-c3ccccc3)cc2=O)C2(CCCC2)C1)c1ccoc1` (centres unmarked) [Example 255, N-(1-(Furan-3-yl)ethyl)-10-hydroxy-10-((6-oxo-4-phenylpyrimidin-1(6H)-yl)methyl)-7-azaspiro[4.5]decane-7-carboxamide]: the IC50 lay within 500 to 5000 nM.

On to `CN(C)C(=O)c1cn(C[C@]2(O)CCN(C(=O)N3CCOC[C@H]3c3ccccc3)CC2(C)C)c(=O)cc1-c1ccccc1` [Example 283, 1-(((S)-4-Hydroxy-3,3-dimethyl-1-((R)-3-phenylmorpholine-4-carbonyl)piperidin-4-yl)methyl)-N,N-dimethyl-6-oxo-4-phenyl-1,6-dihydropyridine-3-carboxamide], for which the IC50 is below 500 nM.

`C[C@H](CC(F)(F)F)C(=O)N1CCC(O)(CN2CCN(c3ccccc3)CC2=O)C2(CCCC2)C1` (stereo partly drawn) [Example 110, 1-((10-Hydroxy-7-((R)-4,4,4-trifluoro-2-methylbutanoyl)-7-azaspiro[4.5]decan-10-yl)methyl)-4-phenylpiperazin-2-one]: the IC50 is below 500 nM.

For `C[C@H](CC(F)(F)F)C(=O)N1CCC(O)(Cn2cnc3c(cnn3Cc3ccccc3)c2=O)C2(CCCC2)C1` (stereo partly drawn) [Example 168, 1-Benzyl-5-((10-hydroxy-7-((R)-4,4,4-trifluoro-2-methylbutanoyl)-7-azaspiro[4.5]decan-10-yl)methyl)-1,5-dihydro-4H-pyrazolo[3,4-d]pyrimidin-4-one], the IC50 was 5000 to 50000 nM.

For `O=C(NCc1ccccn1)N1CCC(O)(Cn2cnc(-c3ccccc3)cc2=O)C2(CCCC2)C1` (centres unmarked) [Example 197, 10-Hydroxy-10-((6-oxo-4-phenylpyrimidin-1(6H)-yl)methyl)-N-(pyridin-2-ylmethyl)-7-azaspiro[4.5]decane-7-carboxamide], the IC50 was 50000 to 250000 nM.

For `C[C@H](CC1CCCCC1)C(=O)N1CCC(O)(Cn2cc(C(=O)N(C)C)ncc2=O)C2(CCCC2)C1` (stereo partly drawn) [Example 10, 4-((7-((R)-3-Cyclohexyl-2-methylpropanoyl)-10-hydroxy-7-azaspiro[4.5]decan-10-yl)methyl)-N,N-dimethyl-5-oxo-4,5-dihydropyrazine-2-carboxamide], the IC50 was below 500 nM.

For `Cc1cccc(F)c1-c1cc(=O)n(C[C@]2(O)CCN(C(=O)N3CCNC[C@H]3c3ccccc3)CC23CCCC3)cn1` [Example 382, 6-(2-Fluoro-6-meth-ylphenyl)-3-(((S)-10-hydroxy-7-((R)-2-phenylpiperazine-1-carbonyl)-7-aza-spiro[4.5]decan-10-yl)methyl)pyrimidin-4(3H)-one], the IC50 is below 500 nM.

For the compound `CC1(C)CN(C(=O)NCc2ccccc2)CCC1(O)Cn1cnc(-c2ccccc2F)cc1=O` (centres unmarked) [Example 195, N-Benzyl-4-((4-(2-fluorophenyl)-6-oxopyrimidin-1(6H)-yl)methyl)-4-hydroxy-3,3-dimethylpiperidine-1-carboxamide], the IC50 was 5000 to 50000 nM.

In the case of `C[C@H](CC1CCCCC1)C(=O)N1CCC(O)(Cn2cc(N=S(C)(C)=O)c(-c3ccccc3)cc2=O)C2(CCCC2)C1` (stereo partly drawn) [Example 72, 1-((7-((R)-3-Cyclohexyl-2-methylpropanoyl)-10-hydroxy-7-azaspiro[4.5]decan-10-yl)methyl)-5-((dimethyl(oxo)-λ^6-sulfaneylidene)amino)-4-phenylpyridin-2(1H)-one], the IC50 was below 500 nM.

Turning to `Cn1cc(-c2cc(=O)n(C[C@]3(O)CCN(C(=O)N4CCOC[C@H]4c4ccc(F)cc4)CC34CCCC4)cn2)cn1` [Example 285, 3-(((S)-7-((R)-3-(4-Fluorophenyl)morpholine-4-carbonyl)-10-hydroxy-7-azaspiro[4.5]decan-10-yl)methyl)-6-(1-methyl-1H-pyrazol-4-yl)pyrimidin-4(3H)-one], the IC50 was below 500 nM.
